One block for each molecule: values may come before it.
Key:
[1] = Fluorescence spectra / excitation wavelength scan of […]s; assay type: physicochemical; conditions: Wavelength 300 nm
Method: (§1) Fig. 3 Dose–response curves and fluorescence spectrums of […]s. a, c, e, g, i, k Dose–response curve of purified […]s with increasing concentrations of ligand in 100 mM Tris-HCl buffer (pH=7.5). […] All data shown are mean ± S.D. (n = 3 biologically independent samples). Source data are provided as a Source data file.
(§2) The study conducted dose–response curve, substrate specificity, and fluorescent spectrum analyses in 100-mM Tris buffer (pH = 7.5), while pH stability experiments were performed in 100-mM Tris buffer at three different pH values (6.5, 7.5, and 8.5) at room temperature. […] protein at a concentration of 0.75 μM, various small molecule concentrations, 1 mM ATP, and 2.5 mM MgCl2 were used in the experiments. Fluorescent signals were detected using a Microplate Reader (Synergy H4, Bio Tek) at an excitation/emission wavelength of 460 nm/510 nm or 480 nm/510 nm. The dose-response curve was determined immediately after the addition of the analyte. The total duration of the measurement was 15 min, with readings taken at one-minute intervals. The dose-response curve was plotted using the fluorescence values obtained after achieving stability in the fluorescence signal. The dose-response curves were fitted using the logistic model LOGISTIC5 available in Origin 2021, which could provide a more adequate fit to asymmetric dose-response data[62],[63]. Excitation spectra were scanned from 300 to 540 nm with a step size of 5 nm, and the emission wavelength was set to 560 nm. Emission spectra were scanned from 470 to 700 nm with a step size of 5 nm, and the excitation wavelength was set to 450 nm. The thermal stability of […] was analyzed using the UNcle multifunctional protein stability analysis system. Measurements were performed in 20 mM MOPS buffer with 2 mM DTT at a sample concentration of 1 mg/mL. Absolute fluorescence quantum yields were measured using an absolute photoluminescence quantum yield spectrometer (FS5, Edinburgh).

[2] = Dose–response curve of purified […] with 4-coumaric acid; assay type: biochemical
Method: as §1
The study conducted dose–response curve, substrate specificity, and fluorescent spectrum analyses in 100-mM Tris buffer (pH = 7.5), while pH stability experiments were performed in 100-mM Tris buffer at three different pH values (6.5, 7.5, and 8.5) at room temperature. […] Fluorescent signals were detected using a Microplate Reader (Synergy H4, Bio Tek) at an excitation/emission wavelength of 460 nm/510 nm or 480 nm/510 nm. The dose-response curve was determined immediately after the addition of the analyte. The total duration of the measurement was 15 min, with readings taken at one-minute intervals. The dose-response curve was plotted using the fluorescence values obtained after achieving stability in the fluorescence signal. […] Excitation spectra were scanned from 300 to 540 nm with a step size of 5 nm, and the emission wavelength was set to 560 nm. Emission spectra were scanned from 470 to 700 nm with a step size of 5 nm, and the excitation wavelength was set to 450 nm. The thermal stability of […] was analyzed using the UNcle multifunctional protein stability analysis system. Measurements were performed in 20 mM MOPS buffer with 2 mM DTT at a sample concentration of 1 mg/mL. Absolute fluorescence quantum yields were measured using an absolute photoluminescence quantum yield spectrometer (FS5, Edinburgh).

GECFINDER-4CA = target: T1, GECFINDER-4CA (Nicotiana tabacum, UniProt O24146); assay: Fluorescence dose-response of purified cpEGFP sensors (0.75 uM) in 100 mM Tris-HCl pH 7.5, room temperature, 1 mM ATP, 2.5 mM MgCl2; excitation 400, 460 or 480 nm by sensor, emission 510 nm; logistic five-parameter fit.; assay type: biochemical; conditions: n = 3
T1 construct: gene 4CL2; cpEGFP with fixed linkers (LE-cpEGFP-TR) inserted between Leu439 and Ile440 in hinge A of Nt4CL2
T1 sequence (O24146 2-542): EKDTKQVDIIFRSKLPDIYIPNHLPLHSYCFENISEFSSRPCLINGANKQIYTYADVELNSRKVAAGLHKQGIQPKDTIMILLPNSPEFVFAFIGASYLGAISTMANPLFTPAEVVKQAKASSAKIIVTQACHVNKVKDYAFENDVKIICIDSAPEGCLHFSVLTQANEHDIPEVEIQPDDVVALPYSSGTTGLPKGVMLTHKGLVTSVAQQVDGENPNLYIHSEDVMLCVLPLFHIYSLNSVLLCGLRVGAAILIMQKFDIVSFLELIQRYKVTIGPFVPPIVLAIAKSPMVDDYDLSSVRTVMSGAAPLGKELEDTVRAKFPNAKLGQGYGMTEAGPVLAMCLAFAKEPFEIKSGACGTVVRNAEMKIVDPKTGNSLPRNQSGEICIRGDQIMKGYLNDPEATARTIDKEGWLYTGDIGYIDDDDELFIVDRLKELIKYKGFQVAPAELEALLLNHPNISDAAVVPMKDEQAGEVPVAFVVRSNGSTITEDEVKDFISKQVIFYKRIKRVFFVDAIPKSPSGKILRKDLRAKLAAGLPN
Method: (§3) Fig. 3 Dose–response curves and fluorescence spectrums of […]s. a, c, e, g, i, k Dose–response curve of purified […]s with increasing concentrations of ligand in 100 mM Tris-HCl buffer (pH=7.5). The normalized ΔF/F0 value increased after ligand binding. All data shown are mean ± S.D. (n = 3 biologically independent samples). b, d, f, h, j, l The fluorescence spectra of […]s changed as the ligand concentration increased. All data shown are mean ± S.D. (n = 3 biologically independent samples). Source data are provided as a Source data file.
as §2

[3] = Dependence of […]s on Mg2+ and ATP (fluorescence intensity); assay type: biochemical; conditions: ATP +
From the text: Ligand specificity is an important biosensors feature. Generally, the NRPS A domains have high specificity for their substrates because they are the first “gatekeeper” of NRPSs and ensure that the correct monomers are activated and thioesterified[32],[33]. […] Twenty proteinogenic amino acids were used to test the ligand specificity of […]s. […] We also investigated the dependence of […]s on Mg^2+ and ATP (Supplementary Fig. 4).
Supplementary Fig. 4 Dependence of GEC FINDER s on Mg2+ and ATP . a-j, Fluore scence intensities of
GECF IN DERs in the absence of any substra te, in the pre sence of Mg2+ alone, ATP alone, both Mg2+ and ATP, Mg2+
and ATP with re spective substra tes. Mg2+ concentra tion was 2.5 mM, and ATP concentra tion was 1 mM. a, 100 μM
data are provided as a Source Data file.

GECFINDER-Ile3 = target: T2, GECFINDER-Ile3 (Bacillus licheniformis, UniProt O68006); assay: Fluorescence dose-response of purified cpEGFP sensors (0.75 uM) in 100 mM Tris-HCl pH 7.5, room temperature, 1 mM ATP, 2.5 mM MgCl2; excitation 400, 460 or 480 nm by sensor, emission 510 nm; logistic five-parameter fit.; assay type: biochemical; conditions: n = 3
T2 construct: gene bacA; BacA-IleA-PCP; cpEGFP inserted, linkers VY-LS
T2 sequence (O68006 1-632 N218D): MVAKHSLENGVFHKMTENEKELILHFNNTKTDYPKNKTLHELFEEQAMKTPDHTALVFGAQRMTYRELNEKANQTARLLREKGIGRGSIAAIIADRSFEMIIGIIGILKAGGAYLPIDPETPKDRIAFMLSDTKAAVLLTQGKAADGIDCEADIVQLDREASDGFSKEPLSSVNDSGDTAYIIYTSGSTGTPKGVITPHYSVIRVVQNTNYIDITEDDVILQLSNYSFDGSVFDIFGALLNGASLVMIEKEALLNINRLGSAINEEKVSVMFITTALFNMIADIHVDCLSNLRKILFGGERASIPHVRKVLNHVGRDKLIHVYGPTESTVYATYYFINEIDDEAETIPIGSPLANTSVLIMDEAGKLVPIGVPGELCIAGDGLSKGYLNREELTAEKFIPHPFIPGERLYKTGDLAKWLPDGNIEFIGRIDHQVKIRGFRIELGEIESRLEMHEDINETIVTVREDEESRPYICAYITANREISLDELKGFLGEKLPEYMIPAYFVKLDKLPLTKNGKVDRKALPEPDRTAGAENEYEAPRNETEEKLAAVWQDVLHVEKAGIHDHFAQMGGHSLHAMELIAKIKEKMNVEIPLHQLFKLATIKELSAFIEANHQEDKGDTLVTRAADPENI
Method: as §3, §2

GECFINDER-Ile1 = target: T3, GECFINDER-Ile1 (Bacillus licheniformis, UniProt O68006); assay: as above; assay type: biochemical; conditions: n = 3
T3 construct: gene bacA; BacA-IleA-PCP; cpEGFP inserted, linkers VY-CA
T3 sequence (O68006 1-632 N218D): as above
Method: as §3, §2

GECFINDER-Ile2 = target: T4, GECFINDER-Ile2 (Bacillus licheniformis, UniProt O68006); assay: as above; assay type: biochemical; conditions: n = 3
T4 construct: gene bacA; BacA-IleA-PCP; cpEGFP inserted, linkers RY-PG
T4 sequence (O68006 1-632 N218D): as above
Method: as §3, §2

GECFINDER-ATP = target: T5, GECFINDER-ATP (Bacillus subtilis, UniProt P39845); assay: Fluorescence dose-response of purified […]-ATP with ATP as the varied ligand (10 nM to 2 mM), 100 mM Tris pH 7.5, room temperature, excitation/emission 480/510 nm.; assay type: biochemical; conditions: n = 3
T5 construct: gene ppsA; PpsA-GluA A domain; LE-cpEGFP-TR inserted between Asp425 and Asp426 in hinge A
T5 sequence (P39845 434-960): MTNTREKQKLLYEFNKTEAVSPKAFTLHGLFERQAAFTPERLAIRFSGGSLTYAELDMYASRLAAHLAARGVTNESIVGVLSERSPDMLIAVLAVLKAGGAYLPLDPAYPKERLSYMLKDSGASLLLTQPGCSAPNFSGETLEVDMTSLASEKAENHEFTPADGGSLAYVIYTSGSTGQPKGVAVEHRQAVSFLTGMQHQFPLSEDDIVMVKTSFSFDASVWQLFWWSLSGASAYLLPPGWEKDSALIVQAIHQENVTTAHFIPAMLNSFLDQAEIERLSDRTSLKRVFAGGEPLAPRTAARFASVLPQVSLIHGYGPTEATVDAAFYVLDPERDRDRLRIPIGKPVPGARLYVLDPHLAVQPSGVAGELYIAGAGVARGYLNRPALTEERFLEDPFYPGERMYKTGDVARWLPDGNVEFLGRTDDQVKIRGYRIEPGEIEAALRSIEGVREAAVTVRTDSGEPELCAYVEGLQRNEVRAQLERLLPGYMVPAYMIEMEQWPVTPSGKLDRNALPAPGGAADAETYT
Method: as §2, with “Excitation spectra were scanned from 300 to 540 nm with a step size of 5 nm, and the emission wavelength was set to 560 nm. Emission spectra were scanned from 470 to 700 nm with a step size of 5 nm, and the excitation wavelength was set to 450 nm.” left out, “Measurements were performed in 20 mM MOPS buffer with 2 mM DTT at a sample concentration of 1 mg/mL.” left out, “Edinburgh). […]” for “Edinburgh).”

GrsA-Phe A domain = conditions: Km for ATP of GrsA-Phe A domain; cited from earlier work
At4CL2 = conditions: ATP Km of At4CL2, homolog of Nt4CL2; cited from earlier work
GECFINDER-His2 = target: T6, GECFINDER-His2 (Bacillus licheniformis, UniProt O68008); assay: Fluorescence dose-response of purified cpEGFP sensors (0.75 uM) in 100 mM Tris-HCl pH 7.5, room temperature, 1 mM ATP, 2.5 mM MgCl2; excitation 400, 460 or 480 nm by sensor, emission 510 nm; logistic five-parameter fit.; assay type: biochemical; conditions: n = 3
T6 construct: gene bacC; BacC-HisA-PCP; cpEGFP inserted, linkers GG-PV
T6 sequence (O68008 2956-3585): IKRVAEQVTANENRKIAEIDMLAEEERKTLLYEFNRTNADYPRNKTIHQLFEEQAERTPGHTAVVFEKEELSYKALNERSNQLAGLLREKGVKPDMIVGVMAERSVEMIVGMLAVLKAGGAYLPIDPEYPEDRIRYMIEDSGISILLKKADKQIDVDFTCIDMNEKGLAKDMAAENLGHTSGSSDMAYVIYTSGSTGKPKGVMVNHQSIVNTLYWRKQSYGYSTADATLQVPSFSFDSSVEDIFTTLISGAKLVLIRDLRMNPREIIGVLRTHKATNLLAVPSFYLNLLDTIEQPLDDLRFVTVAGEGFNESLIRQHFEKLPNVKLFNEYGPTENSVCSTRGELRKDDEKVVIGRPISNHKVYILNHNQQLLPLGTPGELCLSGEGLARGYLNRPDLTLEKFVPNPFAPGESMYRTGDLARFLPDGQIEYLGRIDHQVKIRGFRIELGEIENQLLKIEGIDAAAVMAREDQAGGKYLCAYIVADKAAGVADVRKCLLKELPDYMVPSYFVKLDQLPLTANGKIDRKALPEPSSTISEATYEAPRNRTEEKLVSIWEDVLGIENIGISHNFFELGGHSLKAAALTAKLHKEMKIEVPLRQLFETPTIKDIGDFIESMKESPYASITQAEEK
Method: as §3, §2

GECFINDER-His1 = target: T7, GECFINDER-His1 (Bacillus licheniformis, UniProt O68008); assay: as above; assay type: biochemical; conditions: n = 3
T7 construct: gene bacC; BacC-HisA-PCP; cpEGFP inserted, linkers GA-HC
T7 sequence (O68008 2956-3585): as above
Method: as §3, §2

SMILES: O=C(O)/C=C/c1ccc(O)cc1 [4-coumaric acid]
Wavelength scan, AVE of Repeat 1-3 (Fig. 3 b) ([1]; 0.001 μM 4-coumaric acid): 368 | Wavelength scan, AVE of Repeat 1-3 (Fig. 3 b) ([1]; 2.5 μM 4-coumaric acid): 388.333 | Wavelength scan, AVE of Repeat 1-3 (Fig. 3 b) ([1]; 250 μM 4-coumaric acid): 108.667 | Dose-response, AVE of Repeat 1-3 (Fig. 3 a) ([2]; 4-coumaric acid 0.001 μM): 0 | Dose-response, AVE of Repeat 1-3 (Fig. 3 a) ([2]; 4-coumaric acid 0.01 μM): 0.02925 | Dose-response, AVE of Repeat 1-3 (Fig. 3 a) ([2]; 4-coumaric acid 0.25 μM): 0.1354 | Dose-response, AVE of Repeat 1-3 (Fig. 3 a) ([2]; 4-coumaric acid 0.5 μM): 0.2537 | Dose-response, AVE of Repeat 1-3 (Fig. 3 a) ([2]; 4-coumaric acid 2.5 μM): 0.5733 | Dose-response, AVE of Repeat 1-3 (Fig. 3 a) ([2]; 4-coumaric acid 5 μM): 0.6689 | Dose-response, AVE of Repeat 1-3 (Fig. 3 a) ([2]; 4-coumaric acid 25 μM): 0.7533 | Dose-response, AVE of Repeat 1-3 (Fig. 3 a) ([2]; 4-coumaric acid 50 μM): 0.7561 | Dose-response, AVE of Repeat 1-3 (Fig. 3 a) ([2]; 4-coumaric acid 250 μM): 0.7978 | Dose-response, AVE of Repeat 1-3 (Fig. 3 a) ([2]; 4-coumaric acid 500 μM): 0.7717 | Dose-response, AVE of Repeat 1-3 (Fig. 3 a) ([2]; 4-coumaric acid 2500 μM): 0.8533 | Dose-response, AVE of Repeat 1-3 (Fig. 3 a) ([2]; 4-coumaric acid 5000 μM): 0.8286 | EC50 (GECFINDER-4CA): 1.03 ± 0.06 µM | fluorescence intensity, AVE of 3 repeats ([3]; Supplementary Fig. 4 a, Mg+ +, 4-coumaric acid +): 3682.33

SMILES: CC[C@H](C)[C@H](N)C(=O)O [Ile, isoleucine]
EC50 (GECFINDER-Ile3): 186 ± 61 µM | EC50 (GECFINDER-Ile1): 161 ± 32.1 µM | EC50 (GECFINDER-Ile2): 221 ± 66.3 µM

SMILES: Nc1ncnc2c1ncn2[C@@H]1O[C@H](COP(=O)(O)OP(=O)(O)OP(=O)(O)O)[C@@H](O)[C@H]1O [ATP, adenosine triphosphate]
EC50 (GECFINDER-ATP): 69.3 ± 4.69 µM | Km (GrsA-Phe A domain): 150 µM | fluorescence intensity, AVE of 3 repeats ([3]; Supplementary Fig. 4 a, Mg+ +, 4-coumaric acid -): 2171.67 | fluorescence intensity, AVE of 3 repeats ([3]; Supplementary Fig. 4 a, Mg+ -, 4-coumaric acid -): 2266.67 | fluorescence intensity, AVE of 3 repeats ([3]; Supplementary Fig. 4 b, Mg+ +, phenylalanine -): 9194 | fluorescence intensity, AVE of 3 repeats ([3]; Supplementary Fig. 4 b, Mg+ -, phenylalanine -): 7173.67 | fluorescence intensity, AVE of 3 repeats ([3]; Supplementary Fig. 4 c, Mg+ +, glutamine -): 17330.3 | fluorescence intensity, AVE of 3 repeats ([3]; Supplementary Fig. 4 c, Mg+ -, glutamine -): 17083 | fluorescence intensity, AVE of 3 repeats ([3]; Supplementary Fig. 4 e, Mg+ +, isoleucine -): 12985 | fluorescence intensity, AVE of 3 repeats ([3]; Supplementary Fig. 4 e, Mg+ -, isoleucine -): 12174.7 | fluorescence intensity, AVE of 3 repeats ([3]; Supplementary Fig. 4 f, Mg+ +, histidine -): 25974 | fluorescence intensity, AVE of 3 repeats ([3]; Supplementary Fig. 4 f, Mg+ -, histidine -): 26138.3 | fluorescence intensity, AVE of 3 repeats ([3]; Supplementary Fig. 4 g, Mg+ +, leucine -): 7346.67 | fluorescence intensity, AVE of 3 repeats ([3]; Supplementary Fig. 4 g, Mg+ -, leucine -): 6910.33 | fluorescence intensity, AVE of 3 repeats ([3]; Supplementary Fig. 4 i, Mg+ +, tyrosine -): 5938.67 | fluorescence intensity, AVE of 3 repeats ([3]; Supplementary Fig. 4 i, Mg+ -, tyrosine -): 5712 | fluorescence intensity, AVE of 3 repeats ([3]; Supplementary Fig. 4 j, Mg+ +, phenylalanine -): 7465 | fluorescence intensity, AVE of 3 repeats ([3]; Supplementary Fig. 4 j, Mg+ -, phenylalanine -): 7633 | fluorescence intensity, AVE of 3 repeats ([3]; Supplementary Fig. 4 h, Mg+ +, S-β-phenylalanine -): 5374.33 | fluorescence intensity, AVE of 3 repeats ([3]; Supplementary Fig. 4 h, Mg+ -, S-β-phenylalanine -): 5014 | fluorescence intensity, AVE of 3 repeats ([3]; Supplementary Fig. 4 d, Mg+ +, proline -): 50889 | fluorescence intensity, AVE of 3 repeats ([3]; Supplementary Fig. 4 d, Mg+ -, proline -): 46119 | Km (At4CL2): 163 µM

EC50 (GECFINDER-His2): 13.2 ± 4.26 µM | EC50 (GECFINDER-His1): 10.4 ± 4.74 µM
SMILES: N[C@@H](Cc1c[nH]cn1)C(=O)O [His, histidine]
